Measurements as given in paper PMC11487561 (ACS Chemical Neuroscience, 2024).

Legend:
human M5 = human M5 (Homo sapiens, UniProt P08912); test: Calcium mobilization assay, muscarinic selectivity; type: cell-based
[1] = Binding in plasma from rat (equilibrium dialysis); type: in vitro ADME; settings: fraction unbound, equilibrium dialysis, read-out: rat fu,plasma
Experimental: (§1) Binding in plasma from rat and human.
(§2) Determination of compounds’ fraction unbound (f u) in plasma from rat and human was conducted in vitro via equilibrium dialysis using HTDialysis membrane plates. Dialysis membranes (four paired strips per HTD assay) were hydrated as described by the manufacturer and inserted into the HTD plate, which was assembled and prepared for sample addition by the dispensing of blank buffer (DPBS, 100 µL/well) into the ‘top half’ of each membrane-split well. Each compound was diluted into plasma from each species (5 µM final concentration), which was aliquoted in triplicate to the ‘bottom half’ of the prepared HTD plate wells. The HTD plate was sealed and incubated for 6 hours at 37 °C. Following incubation, each well (both top and bottom halves) were transferred (20 µL) to the corresponding wells of a 96-shallow-well (V-bottom) plate. The daughter plates were then matrix-matched (buffer side wells received equal volume of plasma, and plasma side wells received equal volume of buffer), and extraction solution (120 µL; acetonitrile containing 50 nM carbamazepine as IS) was added to all wells of both daughter plates to precipitate protein and extract test article. The plates were then sealed and centrifuged (3500 rcf) for 10 minutes at ambient temperature. Supernatant (60 µL) from each well of the daughter plates was then transferred to the corresponding wells of new daughter plates (96-shallow-well, V bottom) containing water (Milli-Q, 60 µL/well), and the plates were sealed in preparation for LC-MS/MS analysis (see below). fu was calculated as (analyte to IS MS peak area ratio from Trans-buffer side) / (analyte to IS MS peak area ratio from Cis-plasma side). Mean values for each species were calculated from 3 replicates.

Melatonin MT1 = Melatonin MT1 (Homo sapiens, UniProt P48039); test: Lead Profiling Screen – Eurofins Panlabs; type: binding; settings: read-out: % inh at 10 μM
Chain of Melatonin MT1 (P48039 whole entry): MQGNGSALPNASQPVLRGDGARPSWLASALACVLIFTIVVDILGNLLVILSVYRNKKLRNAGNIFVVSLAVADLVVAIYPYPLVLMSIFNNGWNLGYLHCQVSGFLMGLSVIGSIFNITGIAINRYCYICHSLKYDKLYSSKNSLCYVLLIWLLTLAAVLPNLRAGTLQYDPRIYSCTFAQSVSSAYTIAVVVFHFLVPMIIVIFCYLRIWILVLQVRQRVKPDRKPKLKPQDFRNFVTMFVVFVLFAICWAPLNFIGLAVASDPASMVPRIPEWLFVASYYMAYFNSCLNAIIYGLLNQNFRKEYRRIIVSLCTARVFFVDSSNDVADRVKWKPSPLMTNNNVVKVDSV

Adrenergic β2 = molecular target: T1, Adrenergic β2 (Homo sapiens, UniProt P07550); test: Lead Profiling Screen – Eurofins Panlabs; type: binding; settings: read-out: % inh at 10 μM
T1 construct: Eurofins Panlabs (contract screen)

[2] = Binding in plasma from human (equilibrium dialysis); type: in vitro ADME; settings: human, plasma, fraction unbound; equilibrium dialysis; read-out: human fu,plasma
Experimental: as §1, §2

Endothelin ETA = molecular target: T2, Endothelin ETA (Homo sapiens, UniProt P25101); test: Lead Profiling Screen – Eurofins Panlabs; type: binding; settings: read-out: % inh at 10 μM
T2 construct: Eurofins Panlabs (contract screen)

human M1 = human M1 (Homo sapiens, UniProt P11229); test: Calcium mobilization assay, muscarinic selectivity; type: cell-based
Chain of human M1 (P11229 whole entry): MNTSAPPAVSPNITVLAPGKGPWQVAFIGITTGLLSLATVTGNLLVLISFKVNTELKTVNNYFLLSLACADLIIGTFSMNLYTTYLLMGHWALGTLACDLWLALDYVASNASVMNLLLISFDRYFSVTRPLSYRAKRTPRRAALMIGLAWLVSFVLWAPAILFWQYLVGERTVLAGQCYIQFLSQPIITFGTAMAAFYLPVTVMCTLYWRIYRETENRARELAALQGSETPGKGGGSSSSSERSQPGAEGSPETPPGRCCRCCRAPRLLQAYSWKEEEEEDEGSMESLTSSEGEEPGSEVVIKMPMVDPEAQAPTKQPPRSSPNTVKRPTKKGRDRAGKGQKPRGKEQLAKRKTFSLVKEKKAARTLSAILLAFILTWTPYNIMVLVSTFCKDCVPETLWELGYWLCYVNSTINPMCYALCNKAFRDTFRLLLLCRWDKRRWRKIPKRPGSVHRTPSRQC

[3] = Binding in brain homogenate from rat (equilibrium dialysis); type: in vitro ADME
Experimental: Binding in brain homogenate from rat.
Determination of fraction unbound (f u) in brain homogenate from rat was conducted using the same methodology and procedure than described for plasma protein binding assay with the following modifications: 1) a final compound concentration of 1 μM was used, 2) naïve rat brains were homogenized in DPBS (1:3 composition of brain: DPBS, w/w) using a Mini-Bead Beater™ machine in order to obtain […]
The diluted fraction unbound (f u2) in brain was calculated as (analyte to IS MS peak area ratio from Trans-buffer side) / (analyte to IS MS peak area ratio from Cis-brain homogenate side). Undiluted fraction unbound for the brain was calculated using the following equation: […]
Mean values for each species were calculated from 3 replicates. […]

Glutamate, NMDA, Glycine = Glutamate, NMDA, Glycine (Rattus norvegicus, UniProt P35439); test: Lead Profiling Screen – Eurofins Panlabs; type: binding; settings: read-out: % inh at 10 μM
CYP 2D6 = molecular target: T3, CYP 2D6 (Homo sapiens, UniProt P10635); test: P450 inhibition in pooled human liver microsomes; type: in vitro ADME; settings: pooled HLM, NADPH, CYP-specific probe substrates
T3 construct: from tissue; host or cells: pooled human liver microsomes (according to the earlier reading)
T3 sequence (P10635 whole entry): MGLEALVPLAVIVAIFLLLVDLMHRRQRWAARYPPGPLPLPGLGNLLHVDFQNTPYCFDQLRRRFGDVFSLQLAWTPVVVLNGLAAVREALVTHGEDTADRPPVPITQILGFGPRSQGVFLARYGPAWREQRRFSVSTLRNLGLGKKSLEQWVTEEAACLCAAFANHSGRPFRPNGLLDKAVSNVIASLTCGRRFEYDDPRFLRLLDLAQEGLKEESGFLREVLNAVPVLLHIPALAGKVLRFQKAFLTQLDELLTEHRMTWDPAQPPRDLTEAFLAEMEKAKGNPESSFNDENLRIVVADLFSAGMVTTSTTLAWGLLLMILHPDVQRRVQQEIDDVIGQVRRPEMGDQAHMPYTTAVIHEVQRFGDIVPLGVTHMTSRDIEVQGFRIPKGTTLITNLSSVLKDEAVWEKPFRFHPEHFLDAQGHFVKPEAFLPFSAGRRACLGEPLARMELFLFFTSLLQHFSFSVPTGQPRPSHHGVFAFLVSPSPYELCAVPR

Histamine H1 = Histamine H1 (Homo sapiens, UniProt P35367); test: Lead Profiling Screen – Eurofins Panlabs; type: binding; settings: read-out: % inh at 10 μM
Neuropeptide Y Y1 = Neuropeptide Y Y1 (Homo sapiens, UniProt P25929); test: Lead Profiling Screen – Eurofins Panlabs; type: binding; settings: read-out: % inh at 10 μM
GABAB1A = molecular target: T4, GABAB1A (Homo sapiens, UniProt Q9UBS5); test: Lead Profiling Screen – Eurofins Panlabs; type: binding; settings: read-out: % inh at 10 μM
T4 construct: Eurofins Panlabs (contract screen)

Imidazoline I2, Central = test: Lead Profiling Screen – Eurofins Panlabs; type: binding, rat
4 strains ± S9 = test: Mini Ames test; type: cell-based
CYP 1A2 = molecular target: T5, CYP 1A2 (Homo sapiens, UniProt P05177); test: P450 inhibition in pooled human liver microsomes; type: in vitro ADME; settings: pooled HLM, NADPH, CYP-specific probe substrates
T5 construct: from tissue; host or cells: pooled human liver microsomes (according to the earlier reading)
T5 sequence (P05177 whole entry): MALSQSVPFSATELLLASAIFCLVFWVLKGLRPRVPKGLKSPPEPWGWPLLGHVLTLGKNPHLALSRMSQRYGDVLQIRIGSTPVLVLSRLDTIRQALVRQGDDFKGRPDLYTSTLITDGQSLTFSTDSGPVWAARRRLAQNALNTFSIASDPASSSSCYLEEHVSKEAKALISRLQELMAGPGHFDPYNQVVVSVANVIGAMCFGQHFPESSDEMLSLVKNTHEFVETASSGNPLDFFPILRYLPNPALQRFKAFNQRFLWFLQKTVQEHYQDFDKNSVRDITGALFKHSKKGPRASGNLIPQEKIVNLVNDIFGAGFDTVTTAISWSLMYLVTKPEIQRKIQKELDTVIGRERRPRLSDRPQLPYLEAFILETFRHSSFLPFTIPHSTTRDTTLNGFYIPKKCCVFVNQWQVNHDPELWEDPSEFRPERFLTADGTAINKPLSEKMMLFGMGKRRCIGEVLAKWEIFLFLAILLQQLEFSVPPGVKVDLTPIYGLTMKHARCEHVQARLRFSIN

Adrenergic β1 = molecular target: T6, Adrenergic β1 (Homo sapiens, UniProt P08588); test: Lead Profiling Screen – Eurofins Panlabs; type: binding; settings: read-out: % inh at 10 μM
T6 construct: Eurofins Panlabs (contract screen)
T6 sequence (P08588 whole entry): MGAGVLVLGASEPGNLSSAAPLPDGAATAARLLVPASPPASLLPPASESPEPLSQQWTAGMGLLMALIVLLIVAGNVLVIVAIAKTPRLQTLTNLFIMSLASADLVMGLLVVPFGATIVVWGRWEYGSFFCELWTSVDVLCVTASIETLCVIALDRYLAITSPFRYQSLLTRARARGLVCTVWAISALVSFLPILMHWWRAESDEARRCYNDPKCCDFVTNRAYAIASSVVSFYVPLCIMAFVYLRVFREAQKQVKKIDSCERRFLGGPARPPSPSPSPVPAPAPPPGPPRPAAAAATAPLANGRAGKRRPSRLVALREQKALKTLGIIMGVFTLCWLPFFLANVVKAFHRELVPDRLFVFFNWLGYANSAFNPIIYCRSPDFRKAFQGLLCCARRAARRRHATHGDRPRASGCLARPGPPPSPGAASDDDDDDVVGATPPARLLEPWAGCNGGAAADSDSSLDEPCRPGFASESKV

Opiate μ (OP3, MOP) = Opiate μ (OP3, MOP) (Homo sapiens, UniProt P35372); test: Lead Profiling Screen – Eurofins Panlabs; type: binding; settings: read-out: % inh at 10 μM
Chain of Opiate μ (OP3, MOP) (P35372 whole entry): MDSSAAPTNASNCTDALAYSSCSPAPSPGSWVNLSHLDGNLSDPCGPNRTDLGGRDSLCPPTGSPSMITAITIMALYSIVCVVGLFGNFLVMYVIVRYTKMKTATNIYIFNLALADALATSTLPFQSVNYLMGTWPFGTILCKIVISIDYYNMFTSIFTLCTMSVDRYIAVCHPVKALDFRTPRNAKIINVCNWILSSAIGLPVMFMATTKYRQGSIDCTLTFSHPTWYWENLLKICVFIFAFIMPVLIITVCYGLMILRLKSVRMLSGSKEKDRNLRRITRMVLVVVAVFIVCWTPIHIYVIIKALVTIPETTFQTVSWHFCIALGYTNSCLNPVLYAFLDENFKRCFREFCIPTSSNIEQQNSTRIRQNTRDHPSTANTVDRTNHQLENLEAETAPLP

Transporter, GABA = test: Lead Profiling Screen – Eurofins Panlabs; type: binding, rat
[4] = molecular target: Transporter, Norepinephrine (NET) (Homo sapiens, UniProt P23975); test: Lead Profiling Screen – Eurofins Panlabs; type: binding; settings: read-out: % inh at 10 μM
Chain of Transporter, Norepinephrine (NET) (P23975 whole entry): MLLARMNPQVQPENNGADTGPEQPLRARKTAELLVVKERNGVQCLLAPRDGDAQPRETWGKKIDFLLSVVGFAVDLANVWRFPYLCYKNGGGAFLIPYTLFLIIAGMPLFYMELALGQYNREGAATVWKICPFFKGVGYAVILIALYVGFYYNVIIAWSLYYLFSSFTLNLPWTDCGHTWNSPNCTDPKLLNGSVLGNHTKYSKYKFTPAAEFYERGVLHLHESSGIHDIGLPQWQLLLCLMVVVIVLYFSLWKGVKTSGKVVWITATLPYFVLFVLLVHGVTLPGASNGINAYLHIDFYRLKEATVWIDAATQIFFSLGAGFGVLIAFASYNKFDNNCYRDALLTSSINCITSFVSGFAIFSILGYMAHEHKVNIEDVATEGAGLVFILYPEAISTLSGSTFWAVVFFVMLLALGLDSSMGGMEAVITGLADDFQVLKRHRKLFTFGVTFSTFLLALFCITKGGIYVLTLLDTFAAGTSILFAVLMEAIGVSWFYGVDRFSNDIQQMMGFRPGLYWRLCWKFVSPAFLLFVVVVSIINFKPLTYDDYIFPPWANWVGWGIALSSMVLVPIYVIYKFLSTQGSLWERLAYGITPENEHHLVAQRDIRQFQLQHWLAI

Glucocorticoid = Glucocorticoid (Homo sapiens, UniProt P04150); test: Lead Profiling Screen – Eurofins Panlabs; type: binding; settings: read-out: % inh at 10 μM
Chain of Glucocorticoid (P04150 whole entry): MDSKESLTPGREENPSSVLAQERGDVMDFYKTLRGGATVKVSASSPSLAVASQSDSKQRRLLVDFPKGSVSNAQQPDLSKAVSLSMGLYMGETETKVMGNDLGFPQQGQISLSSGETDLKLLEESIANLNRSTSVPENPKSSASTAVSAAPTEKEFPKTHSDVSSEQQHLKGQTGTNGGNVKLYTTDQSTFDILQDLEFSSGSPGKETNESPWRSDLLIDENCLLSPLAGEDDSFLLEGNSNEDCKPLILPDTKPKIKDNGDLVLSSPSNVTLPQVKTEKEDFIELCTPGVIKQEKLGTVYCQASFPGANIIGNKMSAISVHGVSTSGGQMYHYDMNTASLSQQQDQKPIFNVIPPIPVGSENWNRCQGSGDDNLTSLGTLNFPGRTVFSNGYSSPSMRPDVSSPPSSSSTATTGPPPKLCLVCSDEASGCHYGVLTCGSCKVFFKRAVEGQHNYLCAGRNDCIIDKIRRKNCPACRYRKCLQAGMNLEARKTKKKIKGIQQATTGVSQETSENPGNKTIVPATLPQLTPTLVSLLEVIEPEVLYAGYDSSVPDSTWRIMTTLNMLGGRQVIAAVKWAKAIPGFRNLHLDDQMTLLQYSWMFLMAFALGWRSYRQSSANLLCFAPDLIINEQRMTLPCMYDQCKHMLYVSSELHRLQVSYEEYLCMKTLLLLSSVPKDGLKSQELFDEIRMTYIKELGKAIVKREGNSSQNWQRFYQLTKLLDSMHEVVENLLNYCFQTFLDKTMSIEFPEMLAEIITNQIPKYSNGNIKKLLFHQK

Chain of human M5 (P08912 whole entry): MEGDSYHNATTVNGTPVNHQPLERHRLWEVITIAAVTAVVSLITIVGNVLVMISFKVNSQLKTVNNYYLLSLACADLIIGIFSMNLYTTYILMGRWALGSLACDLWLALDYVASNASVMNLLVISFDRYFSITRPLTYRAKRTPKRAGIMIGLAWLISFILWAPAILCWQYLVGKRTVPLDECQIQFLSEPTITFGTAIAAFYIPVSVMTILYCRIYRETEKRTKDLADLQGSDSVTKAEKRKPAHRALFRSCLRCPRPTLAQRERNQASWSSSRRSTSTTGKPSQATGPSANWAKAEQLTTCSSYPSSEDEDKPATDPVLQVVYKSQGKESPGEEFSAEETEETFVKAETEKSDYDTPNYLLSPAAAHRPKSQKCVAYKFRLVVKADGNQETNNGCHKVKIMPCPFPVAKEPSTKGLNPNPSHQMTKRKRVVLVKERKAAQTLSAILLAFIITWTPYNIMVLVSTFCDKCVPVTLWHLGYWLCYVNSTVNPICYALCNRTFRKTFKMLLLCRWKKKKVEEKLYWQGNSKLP

For `Cc1nc(C)c2c(n1)sc1c(NCc3ccc(C(C)(C)O)cc3)nccc12` [22g], the “human M5 %Ach Max” value (human M5) was “inactive”, the “human M5 EC50” value (human M5) was “inactive” and the fraction unbound at 6 h, 5 µM [1] was 0.024. For the same compound, the inhibition at 10 µM (Melatonin MT1) was 7%, the inhibition at 10 µM (Adrenergic β2) was -5% and the fraction unbound at 6 h, 5 µM [2] was 0.014. For the same compound, the inhibition at 10 µM (Endothelin ETA) was -2%, the “human M1 %Ach Max” value (human M1) was “inactive” and the “human M1 EC50” value (human M1) was “inactive”. The rat fbrain ([3]; fraction unbound, equilibrium dialysis, rat brain homogenates) was 0.016, the fraction unbound at 6 h, 1 µM ([3]; rat, brain homogenate, in %, read-out: fu,brain (rat brain homogenate)) was 0.01 to 0.05 and the inhibition at 10 µM (Glutamate, NMDA, Glycine) was -9%. For the same compound, the IC50 (CYP 2D6) was > 30 µM, the inhibition at 10 µM (Histamine H1) was -11% and the inhibition at 10 µM (Neuropeptide Y Y1) was -1%. For the same compound, the inhibition at 10 µM (GABAB1A) was 6%, the “% inh at 10 μM” value (Imidazoline I2, Central) was -1% and the “Mini Ames test result” value (4 strains ± S9) was “negative”. For the same compound, the IC50 (CYP 1A2) was 23 µM, the inhibition at 10 µM (Adrenergic β1) was 3% and the inhibition at 10 µM (Opiate μ (OP3, MOP)) was 7%. The “% inh at 10 μM” value (Transporter, GABA) was 0%, the inhibition at 10 µM [4] was 26% and the inhibition at 10 µM (Glucocorticoid) was -10%.
